From patent US20240270715A1, “INHIBITORS OF TRANSGLUTAMINASES” (ZEDIRA GMBH, priority 2021, published 2024)

What was measured:
[1] = Caco-2 permeability assay (CacoReady kit); assay type: in vitro ADME; details: human
Method: Permeability coefficients (Papp values) were obtained from Caco-2 barrier studies predicting oral/intestinal bioavailability of the tested compounds. The assays were performed by using CacoReady™ ready-to-use kits from ReadyCell according to the manufacturers protocol.

[2] = Log D by shake flask method (octanol / PBS pH 7.4, HPLC); assay type: physicochemical; details: octanol / PBS pH 7.4, shake flask; read-out: logD
Method: In order to classify the inventive compounds according to their lipophilicity, Log D values (distribution coefficient) were determined by means of the well-established shake flask method, measuring the partition of a compound between an octanol and phosphate-buffered saline (PBS, pH 7.4) by HPLC.
Compounds with a moderate lipophilicity (Log D values from 0 to 3) are usually advantaged for oral absorption, being in balance between solubility and permeability. However, sophisticated formulation of a compound might improve oral bioavailability for highly lipophilic compounds.

[3] = molecular target: T1, recombinant human transglutaminase 2 (Homo sapiens, UniProt P21980); assay: Transglutaminase assay: incorporation of dansylcadaverine into dimethylcasein (DCC-assay); assay type: biochemical; details: recombinant human TG2 10 nM, dansylcadaverine/dimethylcasein; read-out: IC50 TG2
T1 sequence (P21980 1-687): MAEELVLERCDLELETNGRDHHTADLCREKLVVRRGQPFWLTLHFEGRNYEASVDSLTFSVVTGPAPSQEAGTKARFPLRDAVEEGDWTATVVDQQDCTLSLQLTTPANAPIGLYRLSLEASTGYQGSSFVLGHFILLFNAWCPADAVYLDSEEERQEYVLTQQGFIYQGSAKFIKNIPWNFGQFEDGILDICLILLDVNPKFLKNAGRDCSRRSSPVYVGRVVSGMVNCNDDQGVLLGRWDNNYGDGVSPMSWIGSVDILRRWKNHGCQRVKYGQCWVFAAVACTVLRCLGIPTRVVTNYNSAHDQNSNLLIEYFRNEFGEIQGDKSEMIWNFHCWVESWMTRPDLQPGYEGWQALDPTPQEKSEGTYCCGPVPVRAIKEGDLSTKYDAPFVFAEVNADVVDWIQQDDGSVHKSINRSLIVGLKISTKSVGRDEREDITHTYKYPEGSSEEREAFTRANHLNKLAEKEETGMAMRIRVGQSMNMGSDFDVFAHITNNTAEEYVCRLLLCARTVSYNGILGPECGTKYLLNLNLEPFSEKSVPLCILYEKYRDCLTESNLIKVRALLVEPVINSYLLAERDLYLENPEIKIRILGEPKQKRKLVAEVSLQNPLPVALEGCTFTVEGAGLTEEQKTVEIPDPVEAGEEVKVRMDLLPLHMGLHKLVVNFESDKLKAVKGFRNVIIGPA
Method: To illustrate the advantage of branched alkyl moieties over aromatic moieties, we refer to reference compounds Ref. 2 (ZED1227, U.S. Pat. No. 9,434,763 B2) and Ref. 3 (A8, ZED1047). Inhibition data were determined using the classical fluorescent transamidation assay (dansylcadaverine incorporation into methylated casein, DCC-assay) as described [Büchold, C.; Hils, M.; Gerlach, U.; Weber, J.; Pelzer, C.; Heil, A.; Aeschlimann, D.; Pasternack, R. Features of ZED1227: The First-In-Class Tissue Transglutaminase Inhibitor Undergoing Clinical Evaluation for the Treatment of Celiac Disease. Cells 2022, 11, 1667. https://doi.org/10.3390/cells11101667]. Casein is one of the best known high molecular weight (24 kDa) protein substrates for transglutaminases. Please note, the IC50 value of Ref. 3 (A8) published in U.S. Pat. No. 9,434,763 B2 cannot be compared to the present data, relying on a fluorogenic isopeptidase assay.
To this extent, inhibition data were determined using the classical fluorescent transamidation assay (dansylcadaverine incorporation into methylated casein, DCC-assay) as described in Büchold et al. [Büchold, C.; Hils, M.; Gerlach, U.; Weber, J.; Pelzer, C.; Heil, A.; Aeschlimann, D.; Pasternack, R. Features of ZED1227: The First-In-Class Tissue Transglutaminase Inhibitor Undergoing Clinical Evaluation for the Treatment of Celiac Disease. Cells 2022, 11, 1667. https://doi.org/10.3390/cells11101667]. Casein is one of the best known high molecular weight (24 kDa) protein substrates for transglutaminases. Inhibition data of the inventive compounds was compared with inhibition of compounds disclosed in U.S. Pat. No. 9,434,763 B2, particularly, compound A8, which is denoted herein as Reference 3. It is noteworthy that the IC50 values of compounds A8 published in U.S. Pat. No. 9,434,763 B2 and E16 from U.S. Pat. No. 11,072,634 B2 cannot be compared to the present data, relying on a fluorogenic isopeptidase assay.
For the determination of potency of inhibitors against tissue transglutaminase, the incorporation of dansylcadaverine into dimethylcasein (Zedira product T036, Lorand et al., Anal Biochem, 1971, 44:221-31) was measured using recombinant human transglutaminase 2 (Zedira Product T022).
The tissue transglutaminase is diluted in buffer (50 mM Tris-HCl, 7.5 mM CaCl2, 150 mM NaCl, pH=7.4). The final concentration of TG2 in the assay is 10 nM.
A 10 mM inhibitor stock solution is prepared in DMSO, and from this a serial 1:2-fold dilution series is prepared also in DMSO. Each of the initial dilutions is subsequently diluted 1:50-fold with buffer (50 mM Tris-HCl, 7.5 mM CaCl2, 150 mM NaCl, pH=7.4) to yield the final working dilutions containing 2% (v/v) DMSO. 15 μl of inhibitor working dilution are added per well of a 96 well microtiter plate. As control, 15 μl of a 2% (v/v) DMSO solution prepared using the buffer mentioned above are added per well.
Immediately before starting the assay, 600 μl transglutaminase working solution are added to 11.4 ml assay buffer (50 mM Tris-HCl, 10 mM CaCl2, 10 mM glutathione, 2.5% glycerol, 16.7 μM dansylcadaverine, 4 μM N,N-dimethylcasein, 200 mM NaCl, pH=8.0). 285 μl of this reaction mix are added per well containing the inhibitor.
Increase in fluorescence is measured using λex=330 nm and λemG=500 nm at […] for 30 min. A slope of the increase in fluorescence between 20 and 30 min is calculated for determination of the IC50 value (inhibitor concentration at which 50% of the initial activity is blocked).
Analysis of enzymatic activity is performed by calculation of the slope of an increase in fluorescence intensity. IC50 values are calculated by plotting the enzymatic activity (as percentage from control containing 2% DMSO instead of inhibitor) against the inhibitor concentration. IC50 is defined as the inhibitor concentration blocking 50% of initial enzyme activity.

Papp [1] | logD [2] | IC50 [3] | SMILES
< 1 ×10⁻⁶ cm/s | 1 to 3 | 150 to 600 nM | CCNC(=O)C(=O)CC[C@H](NC(=O)c1cnn(C)c1)C(=O)Nc1cccn(CC(=O)NC23CC4CC5C2C[C@@H]2C[C@H]5C(C4)[C@H]3C2)c1=O [Compound I-79, (S)-N1-ethyl-N6-(1-(2-(diamantane-1-amino)-2-oxoethyl)-2-oxo-1,2-dihydropyridin-3-yl)-5-(1-methyl-1H-pyrazole-4-carboxamido)-2-oxohexanediamide]
< 1 ×10⁻⁶ cm/s | 1 to 3 | 600 to 3500 nM | CCNC(=O)C(=O)CC[C@H](NC(=O)c1nccn1C)C(=O)Nc1cccn(CC(=O)NC23CC4CC(C)(CC(C)(C4)C2)C3)c1=O [Compound I-23, (S)-N1-ethyl-N6-(1-(2-(3,5-dimethyladamantane-1-amino)-2-oxoethyl)-2-oxo-1,2-dihydropyridin-3-yl)-5-(1-methyl-1H-imidazole-2-carboxamido)-2-oxohexanediamide]
1 to 10 ×10⁻⁶ cm/s | 1 to 3 | 150 to 600 nM | CCNC(=O)C(=O)CC[C@H](NC(=O)c1cc2ccccc2n1CC)C(=O)Nc1cccn(CC(=O)NC23CC(C2)C3)c1=O [Compound I-102, (S)-N1-(1-(2-(bicyclo[1.1.1]pentan-1-ylamino)-2-oxoethyl)-2-oxo-1,2-dihydropyridin-3-yl)-N6-ethyl-2-(1-ethyl-1H-indole-2-carboxamido)-5-oxohexanediamide]
< 1 ×10⁻⁶ cm/s | 1 to 3 | < 150 nM | CCNC(=O)C(=O)CC[C@H](NC(=O)c1cncn1C)C(=O)Nc1cccn(CC(=O)NC23CC4CC(C)(CC(C)(C4)C2)C3)c1=O [Compound I-4, (S)-N1-ethyl-N6-(1-(2-(3,5-dimethyladamantane-1-amino)-2-oxoethyl)-2-oxo-1,2-dihydropyridin-3-yl)-5-(1-methyl-1H-imidazole-5-carboxamido)-2-oxohexanediamide]
< 1 ×10⁻⁶ cm/s | < 1 | 600 to 3500 nM | CCNC(=O)C(=O)CC[C@H](NC(=O)c1ccc2c(c1)CCCN2)C(=O)Nc1cccn(CC(=O)NC23CCC(C2)C3)c1=O [Compound I-104, (S)-N1-(1-(2-(bicyclo[2.1.1]hexan-1-ylamino)-2-oxoethyl)-2-oxo-1,2-dihydropyridin-3-yl)-N6-ethyl-5-oxo-2-(1,2,3,4-tetrahydroquinoline-6-carboxamido)hexanediamide]
< 1 ×10⁻⁶ cm/s | 1 to 3 | 600 to 3500 nM | CCNC(=O)C(=O)CC[C@H](NC(=O)c1c(C)ncn1C)C(=O)Nc1cccn(CC(=O)NC23CC4CC(CC(CC)(C4)C2)C3)c1=O [Compound I-17, (S)-2-(1,4-dimethyl-1H-imidazole-5-carboxamido)-N6-ethyl-N1-(1-(2-(3-ethyladamantane-1-amino)-2-oxoethyl)-2-oxo-1,2-dihydropyridin-3-yl)-5-oxohexanediamide]
< 1 ×10⁻⁶ cm/s | < 1 | 150 to 600 nM | CCNC(=O)C(=O)CC[C@H](NC(=O)c1ccc2occc2c1)C(=O)Nc1cccn(CC(=O)NC2C3CC4CC2CC(NC(C)=O)(C4)C3)c1=O (stereo partly drawn) [Compound I-113, (S)-2-(benzofuran-5-carboxamido)-N6-ethyl-N1-(1-(2-(1-acetylamino-4-aminoadamantane)-2-oxoethyl)-2-oxo-1,2-dihydropyridin-3-yl)-5-oxohexanediamide]

The next lines start with the molecule.

SMILES | Papp [1] | logD [2] | IC50 [3]
CCNC(=O)C(=O)CC[C@H](NC(=O)c1cc(Br)cs1)C(=O)Nc1cccn(CC(=O)NC2C3CC4CC(C3)CC2C4)c1=O (stereo partly drawn) [Compound I-51, (S)-2-(4-bromothiophene-2-carboxamido)-N6-ethyl-N1-(1-(2-(2-adamantylamino)-2-oxoethyl)-2-oxo-1,2-dihydropyridin-3-yl)-5-oxohexanediamide] | 1 to 10 ×10⁻⁶ cm/s | 3 to 5 | < 150 nM
CCNC(=O)C(=O)CC[C@H](NC(=O)c1nc2ccccc2[nH]1)C(=O)Nc1cccn(CC(=O)NC2C3CC4CC(C3)CC2C4)c1=O (stereo partly drawn) [Compound I-38, (S)-2-(1H-benzo[d]imidazole-2-carboxamido)-N6-ethyl-N1-(1-(2-(2-adamantylamino)-2-oxoethyl)-2-oxo-1,2-dihydropyridin-3-yl)-5-oxohexanediamide] | < 1 ×10⁻⁶ cm/s | 3 to 5 | < 150 nM
CCNC(=O)C(=O)CC[C@H](NC(=O)c1cc(Br)c(Br)s1)C(=O)Nc1cccn(CC(=O)NC2C3CC4CC(C3)CC2C4)c1=O (stereo partly drawn) [Compound I-53, (S)-2-(4,5-dibromothiophene-2-carboxamido)-N6-ethyl-N1-(1-(2-(2-adamantylamino)-2-oxoethyl)-2-oxo-1,2-dihydropyridin-3-yl)-5-oxohexanediamide] | 1 to 10 ×10⁻⁶ cm/s | 3 to 5 | < 150 nM
CCNC(=O)C(=O)CC[C@H](NC(=O)c1ccc2cnccc2n1)C(=O)Nc1cccn(CC(=O)NC2C3CC4CC2CC(CC)(C4)C3)c1=O (stereo partly drawn) [Compound I-106, (S)-N1-ethyl-N6-(1-(2-(5-ethyladamantane-2-amino)-2-oxoethyl)-2-oxo-1,2-dihydropyridin-3-yl)-5-(1,6-naphthyridine-2-carboxamido)-2-oxohexanediamide] | < 1 ×10⁻⁶ cm/s | 3 to 5 | 600 to 3500 nM
CCNC(=O)C(=O)CC[C@H](NC(=O)c1cc(Cl)sc1Cl)C(=O)Nc1cccn(CC(=O)NC2C3CC4CC(C3)CC2C4)c1=O (stereo partly drawn) [Compound I-46, (S)-2-(2,5-dichlorothiophene-3-carboxamido)-N6-ethyl-N1-(1-(2-(2-adamantylamino)-2-oxoethyl)-2-oxo-1,2-dihydropyridin-3-yl)-5-oxohexanediamide] | 1 to 10 ×10⁻⁶ cm/s | 3 to 5 | < 150 nM
